According to EP0244062A2, “Use of aryl ethanol amine derivatives in the treatment of atherosclerosis” (BEECHAM GROUP PLC, priority 1986, dated 1987):

Tests used:
normal mice = test: Serum lipids in normal mice dosed daily for 28 days (Example 1); assay type: in vivo; settings: normal female CFLP mice, mean of 8 ± S.E.; for Serum triglyceride: untreated 40.0±3.2, P < 0.001; for Serum cholesterol: untreated 67.6±2.4
Procedure: Compound P1 provided the following results with normal mice: Normal female CFLP mice were dosed daily at 11.00h for 28 days. One group was also dosed at 17.00h daily. 0n the day after dosing terminated they were killed at 14.00h. Results are means of 8 values ± S.E.

[1] = test system: Goldthioglucose-induced obese mice; test: Serum lipids in goldthioglucose-induced obese mice (Example 2); assay type: in vivo; settings: goldthioglucose-induced obese female CFLP mice, 20 mg/kg p.o. once daily for 28 days, mean of 4 ± S.E.
Procedure: Compound Pl provided the following results with Goldthioglucose-induced obese mice: . Female CFLP mice were given goldthioglucose (0.85 mg/g body wt., i.p.) and after 17 weeks the obese mice (mean wt. 57g) were selected and randomized into two groups of 4. The compound (20 mg/kg, p.o.) or water was given once daily for 28 days and the mice were killed the day after the last dose. Results are means of 4 values ± S.E.

[2] = test system: High fat diet-induced obese mice; test: Serum lipids in high fat diet-induced obese mice (Example 3); assay type: in vivo; settings: high fat diet-induced obese female CFLP mice, 20 mg/kg p.o. once daily for 28 days, mean ± S.E. (n=12)
Procedure: Compound Pl provided the following results with High fat diet-induced obese mice: Female CFLP mice were fed on a high protein, high fat diet. After 13 weeks the obese mice (mean wt. 49g) were selected and randomized into groups of 12. The compound (20 mg/kg, p.o.) or water was given once daily for 28 days and the mice were killed the day after the last dose. Results are means ± S.E, with numbers of determinations in parentheses.

[3] = test system: hypercholesterolaemic mice; test: Cholesterol reduction in hypercholesterolaemic mice on a high cholesterol-cholic acid diet (Example 4); assay type: in vivo; settings: oral; for % Reduction LDL + VLDL cholesterol: heparin precipitation
Procedure: Compound P2 provided the following results with hypercholesterolaemic mice: Mice were made hypercholesterolaemic by being fed on a high cholesterol-cholic acid diet for seven days and were dosed orally on the sixth and seventh days. Low density and very low density lipoprotein (LDL and VLDL) cholesterol were measured together by heparin precipitation.

Male rats = test: Serum lipids in rats given the compound in the diet for 7 days (Example 5); assay type: in vivo; settings: 0.1 g of the compound per kg of diet for 7 days, mean of 8 ± S.E.
Source text: Compound P3 provided the following results with rats: Male rats were fed on a normal diet or on a diet that contained O.lg of the compound per kg of diet for 7 days. Results are means of 8 values ± S.E.

Zucker fa/fa male rats = test: Plasma lipids in Zucker fa/fa rats dosed once daily for 39 days (Example 7); assay type: in vivo; settings: 7.8µmol/kg once daily for 39 days, mean of 8 ± S.E.M.
Procedure: Zucker fa/fa male rats of about 550g were dosed once daily with either water or Compound P3 (7.8µmol/kg) for 39 days. Results are means of 8 values ± S.E.M.

Obese subjects [4] = test: Clinical first study: obese subjects on a low energy liquid formula diet, six weeks (Example 6); assay type: in vivo, human; settings: 50 mg pfb, qds for six weeks, fasted
Procedure: Clinical studies using compound P3: First study Obese subjects (at least 20% above ideal weight) were given a low energy liquid formula diet and treated with the compound (50 mg pfb, qds) or placebo for six weeks. Serum triglyceride and cholesterol were measured in the fasted state just prior to the first dose and on the morning after the last dose of compound or placebo. Results are means ± S.E. with the number of subjects in parenthesis.

Obese subjects [5] = test: Clinical second study: crossover in obese subjects on a low energy high fibre diet, 2 x six weeks (Example 6); assay type: in vivo, human; settings: 50 mg pfb qds first week, then 100 mg qds, fasted
Procedure: Clinical studies using compound P3: Second study Obese subjects (at least 20X above ideal weight) were given a low energy high fibre diet and treated with the compound or placebo for six weeks after which they were given the alternative treatment for a further six weeks. For the first week of treatment (weeks 1 or 7) the dose level was 50 mg pfb, qds and after this it was 100 mg qds. Serum lipids were measured in the fasted state just prior to the first dose and after each six week period of dosing. Results are means ± S.E. with the number of subjects in parentheses.

[6] = 2.5 mg/kg body wt. p.o. daily for 28 days
[7] = 2.5 mg/kg body wt. p.o. twice daily for 28 days
[8] = 5 mg/kg body wt. p.o. daily for 28 days
[9] = 10 mg/kg body wt. p.o. daily for 28 days
[10] = 15 mg/kg body wt. p.o. daily for 28 days
[11] = total dose on days 6 and 7 5 mg/kg
[12] = total dose on days 6 and 7 10 mg/kg
[13] = total dose on days 6 and 7 25 mg/kg

COC(=O)c1ccc(CC(C)NCC(O)c2ccc(O)c(CO)c2)cc1 (centres unmarked) [Compound P1, N-(2-(4-carbomethoxghenyl)-1-metnylethyl) -2-hydroxy-2-(4-hydroxy-3-hydroxymethylphenyl) ethanamine]
Serum triglyceride (normal mice; [6]): 21.5±1.1 mg/100 ml | Serum cholesterol (normal mice; [6]): 67.0±3.2 mg/100 ml | Serum triglyceride (normal mice; [7]): 16.4±0.8 mg/100 ml | Serum cholesterol (normal mice; [7]): 74.4±1.7 mg/100 ml | Serum triglyceride (normal mice; [8]): 16.3±1.1 mg/100 ml | Serum cholesterol (normal mice; [8]): 69.1±2.4 mg/100 ml | Serum triglyceride (normal mice; [9]): 14.5±0.7 mg/100 ml | Serum cholesterol (normal mice; [9]): 68.4±3.3 mg/100 ml | Serum triglyceride (normal mice; [10]): 14.3±0.8 mg/100 ml | Serum cholesterol (normal mice; [10]): 71.0±2.4 mg/100 ml | Serum triglyceride ([1]; control 35±4, P < 0.05): 22±3 mg/100 ml | Serum cholesterol ([1]; control 82±4): 81±6 mg/100 ml | Serum triglyceride ([2]; control 73±8, P < 0.01): 34±2**(12) mg/100ml | Serum cholesterol ([2]; control 118±3, P < 0.05): 103±5*(12) mg/100ml

COC(=O)COc1ccc(C[C@@H](C)NC[C@H](O)c2cccc(Cl)c2)cc1 (racemic) [Compound P2, N-(2-(4-carbomethoxymethoxyphenyl)-1-methylethyl)--2-hydroxy-2-(3-chlorophenyl)ethanamine nydrobromide]
% Reduction Total cholesterol [3, 11]: 24% | % Reduction LDL + VLDL cholesterol [3, 11]: 29% | % Reduction Total cholesterol [3, 12]: 22% | % Reduction LDL + VLDL cholesterol [3, 12]: 28% | % Reduction Total cholesterol [3, 13]: 34% | % Reduction LDL + VLDL cholesterol [3, 13]: 55%

COC(=O)c1ccc(C[C@@H](C)NC[C@H](O)c2ccccc2)cc1 (racemic) [Compound P3, N-[2-(4-carbomethoxyphenyl)-1-methylethyl]-2-hydroxy-2-phenylethanamine hemifumarate]
Serum cholesterol (Male rats; control 52±2): 54±3 mg/100ml | Serum triglyceride (Male rats; control 112±10, P < 0.05): 70±4 mg/100ml | Plasma Cholesterol (Zucker fa/fa male rats; water 3.44 ± 0.10, p < 0.05): 3.07 ± 0.14 mM | Plasma Triglyceride (Zucker fa/fa male rats; water 9.3 ± 0.7, p < 0.02): 5.9 ± 0.9 mM | Serum triglyceride % Fall (Obese subjects [4]; initial 2.05±0.16 mM (4), subjects with initial levels below 1 mM excluded, placebo 21±7): 52±6% | Serum cholesterol % Fall (Obese subjects [4]; initial 5.81±0.44 mM (5), placebo 19±5): 21±7% | HDL cholesterol % change (Obese subjects [5]; 1st 6 weeks, initial 1.50±0.07 mM (15), placebo -10±3): 0±4% | Serum triglyceride % change (Obese subjects [5]; 1st 6 weeks, initial 1.57±0.18 mM (15), placebo -12±5): -25±5% | Serum cholesterol % change (Obese subjects [5]; 1st 6 weeks, initial 6.10±0.24 mM (15), placebo -13±3): -9±3% | Serum triglyceride % change (Obese subjects [5]; 2nd 6 weeks (after crossover), initial 1.21±0.18 mM (15), placebo +33±10): -4±8% | HDL cholesterol % change (Obese subjects [5]; 2nd 6 weeks (after crossover), initial 1.30±0.04 mM (15), placebo -5±4): +14±3% | Serum cholesterol % change (Obese subjects [5]; 2nd 6 weeks (after crossover), initial 5.30±0.29 mM (15), placebo +4±3): +5±3%
